{"source": "paper doi:10.1101/2025.02.26.640266v1", "about": "“Predicting PROTAC-targeted Degradation and Designing Androgen Receptor Degraders with AiPROTAC” (biorxiv, 2025)", "target": "CRBN (human cereblon) (Homo sapiens, UniProt Q96SW2)", "test": "HTRF human cereblon binding kit (competition)"}
{"smiles": "CC1(C)[C@H](NC(=O)c2ccc(N3CCN(CCCSc4ccc5c(c4)CN(C4CCC(=O)NC4=O)C5=O)CC3)nc2)C(C)(C)[C@H]1Oc1ccc(C#N)c(Cl)c1", "note": "(stereo partly shown) [GT19, PROTAC GT19]", "values": [{"measurement": "IC50", "value": 150, "unit": "nM"}]}
